For data set [1], the system named is primary human mesenchymal stem cells (MSCs). Put plainly: Osteoinductive (OI) alkaline phosphatase (ALP) assay, dose response, ALP normalised to DNA. It is filed as cell-based. The text has this: (§1) Samples from several classes of small molecule compounds including, corticosteroids, glucocorticoids, oxysterols, compounds that impact the HMG coA reductase pathway and compounds that upregulate intracellular cAMP were screened for osteoinductive potential with an alkaline phosphatase (ALP) assay in primary human mesenchymal stem cells (MSCs). Sample compounds were screened over a dose range in a multiwell plate format using DNA to normalize the ALP response as a function of cell number. These dose response curves allowed for the determination of an EC50 to measure relative potency of the osteogenic response between compounds. FIG. 1 is a representative dose response curve for two of the corticosteroid compounds tested, clobetasol propionate and dexamethasone. In addition to the functional analysis, certain identified compounds were run through an in vitro L929 cytotoxicity assay to determine a CC50.

The nature of data set [2]: In vitro L929 cytotoxicity assay (CTG). The format is cell-based. The note with it: mouse, L929 cells; read-out: Cytotox (CTG) CC50.
Excerpt: as §1

The subject of data set [3] is MSCs. Kind of data set: Relative potency: ALP assay after short exposure times, then basal media to assay completion. Conditions: for EC50: Homo sapiens, MSCs, then basal media; for Max Osteogenic Response: time range to reach the full response of the ALP assay control (dexamethasone at 10 nM for 6 days). It is filed as cell-based, human. On the procedure:
One part of this technology may involve coating an osteoconductive scaffold with an osteoinductive small molecule compound to thereby deliver the compound locally when the scaffold is implanted. Consequently, the optimal time and concentration profile required for the compound to remain at the site in order to influence an osteogenic outcome was determined. Initially, potency was determined by looking at exposure over 6 days. In order to better understand the optimal exposure profile, MSCs were treated over a series of dose ranges for exposure times starting at 1 hour out to 4 days, after which the compound treated media was removed and the cells were allowed to continue to assay completion under basal media conditions. This allowed for the determination of the relative potency of the compounds over short exposure periods and gave an indication of the release requirements that would be necessary to achieve the desired osteogenic outcome.
FIG. 2 is a representative relative potency graph of a corticosteroid, fluticasone propionate, based on the results shown in Table 2.

Data set [4] concerns MSCs. Put plainly: In vitro 3-D efficacy: ALP RNA expression in MSCs seeded on coated Scaffold I. Conditions: compound precoated on Scaffold I, MSCs cultured three days, versus basal conditions. It is filed as cell-based. On the procedure:
The osteoinductive potential of selected small molecule compounds were determined in vitro by seeding MSCs onto a three dimensional b-TCP polymer composite scaffold, Scaffold I, which had been coated with selected compounds prior to seeding. These cells were allowed to culture for a period of time after which they were assayed for alkaline phosphatase (ALP) RNA content, an early marker of osteogenic differentiation. FIG. 7 is a graphical illustration showing the amount of ALP RNA expression in the MSCs, expressed as a fold increase over basal conditions (standard culture conditions). In this example, dexamethasone (a control for the assay) was added to the culture media in solution whereas in all other cases the compounds were precoated on to Scaffold I followed by addition of the MSCs. The cells were then cultured for three days and assayed for their level of osteogenic response via ALP RNA expression.

A further data set deals with L929. Put plainly: In vitro L929 cytotoxicity assay (CTG). It is filed as cell-based. The note with it: L929 cells; read-out: Cytotox (CTG) CC50.
Excerpt: as §1

Setting [5] is: Homo sapiens, Mesenchymal stem cells, 144 h, primary human MSCs, exposure over 6 days, read-out: OI Assay (ALP) EC50.
Where [6] appears, read: primary human MSCs, exposure over 6 days, read-out: OI Assay (ALP) EC50.
Setting [7] is: 1 hr exposure, read-out: EC50 1 hr.
[8] abbreviates: 4 hr exposure, read-out: EC50 4 hr.
[9] abbreviates: 24 hr exposure, read-out: EC50 24 hr.
Setting [10] is: 72 hr exposure, read-out: EC50 72 hr.
The mark [11] stands for this setting: Homo sapiens, Mesenchymal stem cells, 144 h, MSCs, 6 days exposure, read-out: EC50 6 days.

Molecules are shown by their SMILES. Counter-ions that a name gives are not always drawn. Like-named read-outs stand apart in the source and are kept apart here.

A word on the EC50: it is the concentration giving half of the maximal effect. Take `CC(C)Cn1c(=O)n(C)c(=O)c2[nH]cnc21` [3-isobutyl 1-methylxanthine (IBMX), 3-isobutyl 1-methylxanthine]: the EC50 in data set [1] (setting [5]) was over 10000 nM.

For `CC(C)CCC[C@@H](C)[C@H]1CC[C@H]2[C@@H]3CC=C4C[C@@H](O)CC[C@]4(CO)[C@H]3CC[C@]12C` [19-hydroxy-cholesterol], in data set [1] (setting [5]), the EC50 is over 12000 nM.

Consider `CC(C)CC[C@H](O)[C@@H](C)[C@H]1CC[C@H]2[C@@H]3CC=C4C[C@@H](O)CC[C@]4(C)[C@H]3CC[C@]12C` [22(S)-hydroxy-cholesterol], for which the half-maximal effective concentration (EC50) in data set [1] (setting [5]) is over 12000 nM.

The CC50 is the concentration giving 50% cytotoxicity. Consider `CC(C)CC[C@@H](O)[C@@H](C)[C@H]1CC[C@H]2[C@@H]3CC=C4C[C@@H](O)CC[C@]4(C)[C@H]3CC[C@]12C` [22(r)-hydroxy-cholesterol], for which the EC50 in data set [1] (setting [5]) was 785 nM. Further, the CC50 in data set [2] is over 12000 nM.

Take `C[C@H](CCCC(C)(C)O)[C@H]1CC[C@H]2[C@@H]3CC=C4C[C@@H](O)CC[C@]4(C)[C@H]3CC[C@]12C` [25-hydroxy-cholestero]: in data set [1] (setting [6]), the EC50 is over 12000 nM.

In the case of `C[C@]12CCC(=O)C=C1CC[C@@H]1[C@@H]2[C@@H](O)C[C@]2(C=O)[C@@H](C(=O)CO)CC[C@@H]12` [Aldosterone 98%, Aldosterone], the EC50 in data set [1] (setting [5]) stood at 287 nM.

`C[C@H]1C[C@H]2[C@@H]3CCC4=CC(=O)C=C[C@]4(C)[C@@]3(F)[C@@H](O)C[C@]2(C)[C@@]1(O)C(=O)CO` [Betamethasone]: the EC50 in data set [1] (setting [5]) worked out at 1.96 nM.

Regarding `CCCC1O[C@@H]2C[C@H]3[C@@H]4CCC5=CC(=O)C=C[C@]5(C)[C@H]4[C@@H](O)C[C@]3(C)[C@]2(C(=O)CO)O1` (some centres unmarked) [Budesonide], the EC50 in the data set with MSCs [3] (setting [7]) amounted to 47.9 nM; in the data set on MSCs [3] (setting [8]), 5.47 nM; with MSCs [3] (setting [9]), 4.48 nM; with MSCs [3] (setting [10]), 0.0533 nM; in data set [1] (setting [11]) it was 0.296 nM; in data set [1] (setting [5]) it was 0.296 nM. The “Max Osteogenic Response” value in the data set on MSCs [3] was determined as 72 h. Moreover, the half-maximal cytotoxic concentration (CC50) in data set [2] is over 30000 nM.

In the case of `CCC(=O)O[C@]1(C(=O)CCl)[C@@H](C)C[C@H]2[C@@H]3CCC4=CC(=O)C=C[C@]4(C)[C@@]3(F)[C@@H](O)C[C@@]21C` [Clobetasol propionate], the “ALP RNA expression (osteogenic differentiation of MSCs)” value in the data set on MSCs [4] was “upregulated osteogenic differentiation of MSCs significantly”. Also, the half-maximal effective concentration (EC50) in the data set with MSCs [3] (setting [7]) is 0.0605 nM; with MSCs [3] (setting [8]) it was 0.019 nM; in the data set with MSCs [3] (setting [9]), 0.0804 nM; in the data set on MSCs [3] (setting [10]), 0.00371 nM; in data set [1] (setting [11]) it was 0.012 nM; in data set [1] (setting [5]), 0.012 nM. Also, the “Max Osteogenic Response” value in the data set with MSCs [3] was found to be 72 h. In data set [2], the 50% cytotoxic concentration (CC50) was over 30000 nM.

Regarding `CC(=O)OCC(=O)[C@@]12N=C(C)O[C@@H]1C[C@H]1[C@@H]3CCC4=CC(=O)C=C[C@]4(C)[C@H]3[C@@H](O)C[C@@]12C` [Deflazacort], the EC50 in data set [1] (setting [5]) is 9.85 nM.

For `C[C@@H]1C[C@H]2[C@@H]3CCC4=CC(=O)C=C[C@]4(C)[C@@]3(F)[C@@H](O)C[C@]2(C)[C@@]1(O)C(=O)CO` [Dexamethasone], the EC50 in the data set with MSCs [3] (setting [8]) was found to be 0.787 nM; in the data set on MSCs [3] (setting [10]) it was 0.277 nM; in data set [1] (setting [11]), 0.95 nM; in data set [1] (setting [5]) it was 0.95 nM. In addition, in data set [2], the CC50 is over 50000 nM.

Turning to `CC(=O)OCC(=O)[C@@]1(OC(C)=O)[C@@H](C)C[C@H]2[C@@H]3C[C@H](F)C4=CC(=O)C=C[C@]4(C)[C@@]3(F)[C@@H](O)C[C@@]21C` [Diflorasone Diacetate], the EC50 in data set [1] (setting [5]) was found to be 1.38 nM.

As for `OCCN(CCO)c1nc(N2CCCCC2)c2nc(N(CCO)CCO)nc(N3CCCCC3)c2n1` [Dipyridamole], the CC50 in data set [2] is over 30000 nM.

`COC(=O)[C@H](CCSC)NC(=O)c1ccc(NC[C@@H](N)CS)cc1-c1ccccc1` [FTI-277 trifluoroacetate salt]: the 50% effective concentration (EC50) in data set [1] (setting [6]) was over 12000 nM.

For `CC(=O)OCC(=O)[C@@]1(O)CC[C@H]2[C@@H]3CCC4=CC(=O)CC[C@]4(C)[C@@]3(F)[C@@H](O)C[C@@]21C` [Fludrocotisone actetate], the EC50 in data set [1] (setting [6]) was 4.12 nM.

As for `CC(=O)[C@@]1(O)CC[C@H]2[C@@H]3C[C@H](C)C4=CC(=O)C=C[C@]4(C)[C@@]3(F)[C@@H](O)C[C@@]21C` [Fluorometholone], the EC50 in the data set with MSCs [3] (setting [8]) amounted to 0.464 nM; in the data set on MSCs [3] (setting [10]) it was 0.146 nM; in data set [1] (setting [11]), 0.319 nM; in data set [1] (setting [5]), 0.319 nM. Further, the “Max Osteogenic Response” value with MSCs [3] was 144 h. Moreover, in data set [2], the CC50 is over 5000 nM.

As for `CC1(C)O[C@@H]2C[C@H]3[C@@H]4C[C@H](F)C5=CC(=O)CC[C@]5(C)[C@H]4[C@@H](O)C[C@]3(C)[C@]2(C(=O)CO)O1` [Flurandrenolide], the concentration for a half-maximal effect (EC50) in data set [1] (setting [5]) is 1.56 nM.

As for `O=CN(O)CCCP(=O)(O)O` [Fosmidomycin], the half-maximal effective concentration (EC50) in data set [1] (setting [5]) is over 10000 nM.

Regarding `COC(=O)[C@H](CC(C)C)NC(=O)c1ccc(NC[C@@H](N)CS)cc1-c1ccccc1` [GGTI-286], the concentration giving a half-maximal response (EC50) in data set [1] (setting [6]) was over 12000 nM.

Take `CC1(C)O[C@@H]2C[C@H]3[C@@H]4CCC5=CC(=O)CC[C@]5(C)[C@@]4(F)[C@@H](O)C[C@]3(C)[C@]2(C(=O)CCl)O1` [Halcinonide]: the “ALP RNA expression (osteogenic differentiation of MSCs)” value in the data set on MSCs [4] is “upregulated osteogenic differentiation of MSCs significantly”. The EC50 in the data set with MSCs [3] (setting [7]) turned out to be 2.29 nM; with MSCs [3] (setting [9]) it was 1.26 nM; with MSCs [3] (setting [10]) it was 0.115 nM; in data set [1] (setting [11]) it was 0.235 nM; in data set [1] (setting [5]), 0.235 nM. Also, the “Max Osteogenic Response” value with MSCs [3] was 72 h. Moreover, in data set [2], the CC50 is over 10000 nM.

Take `O=C1C=C2C(=CCOC2O)O1` (centres unmarked) [Patulin]: the EC50 in data set [1] (Mesenchymal stem cells, 144 h, primary human MSCs, exposure over 6 days, read-out: OI Assay (ALP) EC50) was over 10000 nM.

`CC(=O)CCCCn1c(=O)c2c(ncn2C)n(C)c1=O` [Pentoxifylline (Trental), Pentoxifylline]: the EC50 in data set [1] (setting [5]) is over 10000 nM.

As to `CCCn1cnc2c1c(=O)n(CCCCC(C)=O)c(=O)n2C` [Propentofylline], the EC50 in data set [1] (setting [5]) was over 10000 nM.

With `C[C@]12C=CC(=O)C=C1CC[C@H]1[C@@H]3C[C@@H](O)[C@](O)(C(=O)CO)[C@@]3(C)C[C@H](O)[C@@]12F` [Triamcinolone], in data set [1] (setting [5]), the EC50 is 4.13 nM.

With `CCN(CC)CCOc1ccc(C(O)(Cc2ccc(Cl)cc2)c2ccc(C)cc2)cc1` (centres unmarked) [Triparanol], in data set [1] (setting [5]), the EC50 was over 10000 nM.

Take `C=C(CC[C@]12O[C@H](C(=O)O)[C@@](O)(C(=O)O)[C@](C(=O)O)(O1)[C@H](OC(=O)/C=C/[C@@H](C)C[C@@H](C)CC)[C@H]2O)[C@@H](OC(C)=O)[C@H](C)Cc1ccccc1` [Zaragozic Acid A]: the EC50 in data set [1] (setting [6]) turned out to be 715 nM. The cytotoxic concentration (CC50) in the data set with L929 is over 30000 nM.

Turning to `O=C(O)c1ccc(CCN2CCN(C/C=C/c3ccc(Cl)cc3)CC2)cc1` [bm15766 sulfate], the EC50 in data set [1] (setting [6]) was over 10000 nM.

In the case of `CCCC(=O)Nc1ncnc2c1ncn2[C@@H]1O[C@@H]2COP(=O)(O)O[C@H]2[C@H]1OC(=O)CCC` [dbcAMP], the EC50 in data set [1] (setting [6]) is over 10000 nM.

Consider `CC[C@H](CC[C@@H](C)[C@H]1CC[C@H]2[C@@H]3CC=C4C[C@@H](O)CC[C@]4(C)[C@H]3CC[C@]12C)C(C)C` [β-Sitosterol], for which, in data set [1] (setting [6]), the EC50 was over 12000 nM.
